In patent US20260256751A1, “COMBINATION OF BETA-2-ADRENERGIC RECEPTOR AGONISTS AND GLP-1 RECEPTOR AGONISTS FOR USE IN TREATING HYPERGLYCAEMIA” (ATROGI AB, priority 2023, published 2026):

Experiments:
[1] = system: differentiated L6-myotubes; test: Glucose uptake screen (Biological example 1 of WO 2019/053427); assay type: cell-based; conditions: compound at 10 μM, activity relative to isoproterenol at 10 μM, read-out: Biological example 1 of WO 2019/053427 (GU)
How it was run: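 Uptake was read out as ^3H-2-deoxyglucose (50 nM, 10 min) radioactivity in NaOH lysates. Beforehand, overnight-starved, differentiated L6 myotubes received compound at 1×10^−5 M with ICI-118551 present for 1 h 40 min, followed by fresh agonist for a further 20 min in glucose-free medium.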

[2] = system: differentiated L6-myotubes; test: cAMP production relative to isoprenaline (Biological example 2 of WO 2019/053427); assay type: cell-based; conditions: 0.25 h, compound at 10 μM, activity relative to isoproterenol at 10 μM
How it was run: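 Values are cAMP levels relative to isoprenaline at equal concentration (final 1×10^−5 M for both). Stimulation lasted 15 min in differentiated L6 myotubes, using HBSS buffer (pH 7.4) containing 1 mM IBMX, 5 mM HEPES and 1% BSA.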

Row | SMILES | Emax at 10 µM [1] | Emax at 10 µM [2]
1 | CC1(NC[C@H](O)c2cccc(F)c2)CC1 [Compound 82, (R)-1-(m-fluorophenyl)-2-(1-methylcyclopropylamino)-1-ethanol] | > 75% | < 25%
2 | CCC[C@H]1CCC[C@H]([C@@H](O)c2ccc(F)c(F)c2)N1 [Compound 65, (S)-[(2R,6S)-6-propyl-2-piperidyl](3,4-difluorophenyl)methanol] | 25 to 50% | < 25%
3 | CO[C@H]1CC[C@H](C[C@H]2CC[C@H]([C@H](O)c3cncc(F)c3)N2)CC1 [Compound 341, (R)-[(2R,5R)-5-{[(1r,4R)-4-methoxycyclohexyl]methyl}-2-pyrrolidinyl](5-fluoro-3-pyridyl)methanol] | > 75% | < 25%
4 | CC1(C)C[C@H]([C@@H](O)c2cccc(Cl)c2)N1 [Compound 233, (S)-[(R)-4,4-dimethyl-2-azetidinyl](m-chlorophenyl)methanol] | < 25% | < 25%
5 | Oc1ccc(C(O)CNCC2CCCCC2)cc1 (stereo not shown) [Compound 6, 2-[(cyclohexylmethyl)ami-no]-1-(p-hydroxyphenyl)-1-ethanol] | > 75% | < 25%
6 | COc1ccc(C[C@H]2CC[C@H]([C@H](O)c3cccc(F)c3)N2)cc1 [Compound 374, (R)-{(2R,5R)-5-[(p-methoxyphenyl)methyl]-2-pyrrolidinyl}(m-fluorophenyl)methanol] | > 75% | < 25%
7 | COc1ccc(CCC23CCC([C@H](O)c4cccc(F)c4)(CC2)N3)cc1 [Compound 540, (R)-(m-fluorophenyl){4-[2-(p-methoxyphenyl)ethyl]-7-azabicyclo[2.2.1]hept-1-yl}methanol] | 50 to 75% | 25 to 50%
8 | CC(C)(C[C@H]1CC[C@H](N)CC1)NC[C@H](O)c1cccc(F)c1 [Compound 371, (R)-2-{1,1-dimethyl-2-[(1r,4R)-4-aminocyclohexyl]ethylamino}-1-(m-fluorophenyl)-1-ethanol] | > 75% | < 25%
9 | CCC[C@H]1CCC[C@H]([C@@H](O)c2cccc(Cl)c2)N1 [Compound 129, (S)-[(2R,6S)-6-propyl-2-piperidyl](m-chlorophenyl)methanol] | 25 to 50% | < 25%
10 | O[C@@H](c1cncc(F)c1)[C@H]1CC[C@H](Cc2ccc(Cl)cc2)N1 [Compound 405, (S)-{(2R,5R)-5-[(p-chlorophenyl)methyl]-2-pyrrolidinyl}(5-fluoro-3-pyridyl)methanol] | > 75% | < 25%
11 | CN(C)S(=O)(=O)[C@H]1CC[C@@H](CC(C)(C)NC[C@H](O)c2cncc(F)c2)CC1 [Compound 471, (R)-2-{1,1-dimethyl-2-[(1s,4S)-4-(dimethylaminosulfonyl)cyclohexyl]ethylamino}-1-(5-fluoro-3-pyridyl)-1-ethanol] | > 75% | 50 to 75%
12 | CCC[C@H]1CCC[C@H]([C@H](O)c2cccc(Cl)c2)N1 [Compound 128, (R)-[(2R,6S)-6-propyl-2-piperidyl](m-chlorophenyl)methanol] | 25 to 50% | < 25%
13 | CCCC(C)NCC(O)c1cccc(O)c1 (stereo not shown) [Compound 14, 1-(m-hydroxyphenyl)-2-(1-methylbutylamino)-1-ethanol] | > 75% | < 25%
14 | CC(C)(NC[C@H](O)c1cncc(F)c1)[C@H]1CC[C@H](N)CC1 [Compound 344, (R)-1-(5-fluoro-3-pyridyl)-2-{1-methyl-1-[(1r,4R)-4-aminocyclohexyl]ethylamino}-1-ethanol] | < 25% | < 25%
15 | CC1(C)CC[C@H]([C@H](O)c2cccc(N)c2F)N1 [Compound 227, (R)-[(R)-5,5-dimethyl-2-pyrrolidinyl](3-amino-2-fluorophenyl)methanol] | > 75% | < 25%
16 | CCCCNC[C@H](O)c1cccc(O)c1F [Compound 87, (R)-2-(butylamino)-1-(2-fluoro-3-hydroxyphenyl)-1-ethanol] | > 75% | 25 to 50%
17 | CCC[C@H]1CCC[C@H]([C@H](O)c2cccc(F)c2)N1 [Compound 69, (R)-[(2R,6S)-6-propyl-2-piperidyl](m-fluorophenyl)methanol] | 50 to 75% | < 25%
18 | Cc1c(F)cccc1[C@@H](O)CNC(C)(C)C [Compound 150, (R)-2-(tert-butylamino)-1-(3-fluoro-2-tolyl)-1-ethanol] | > 75% | 25 to 50%

Row | SMILES | Emax at 10 µM [1] | Emax at 10 µM [2]
19 | CC(C)(NC[C@H](O)c1cncc(F)c1)[C@H]1CC[C@H](OCC(=O)O)CC1 [Compound 419, [(1R,4r)-4-{1-[(R)-2-(5-fluoro-3-pyridyl)-2-hydroxyethylamino]-1-methylethyl}cyclohexyloxy]aetic acid] | 50 to 75% | < 25%
20 | CS(=O)(=O)N[C@H]1CC[C@@H](C[C@@H]2CC[C@H]([C@@H](O)c3cccc(F)c3)N2)CC1 [Compound 511, (S)-[(2R,5S)-5-{[(1s,4R)-4-(mesylamino)cyclohexyl]methyl}-2-pyrrolidinyl](m-fluorophenyl)methanol] | 25 to 50% | < 25%
21 | CC(C)(CC[C@H]1CC[C@H](C(=O)O)CC1)NC[C@H](O)c1cncc(F)c1 [Compound 343, (1R,4r)-4-{3-[(R)-2-(5-fluoro-3-pyridyl)-2-hydroxyethylamino]-3-methylbutyl}cyclohexanecarboxylic acid] | 25 to 50% | < 25%
22 | CC(=O)N(C)[C@H]1CC[C@H](CC(C)(C)NC[C@H](O)c2cccc(F)c2)CC1 [Compound 491, N-[(1R,4r)-4-{2-[(R)-2-(m-fluorophenyl)-2-hydroxyethylamino]-2-methylpropyl}cyclohexyl]-N-methylacetamide] | > 75% | < 25%
23 | O[C@H](c1cccc(F)c1)C12CCC(CCc3cccnc3)(CC1)N2 [Compound 446, (R)-(m-fluorophenyl){4-[2-(3-pyridyl)ethyl]-7-azabicyclo[2.2.1]hept-1-yl}methanol] | > 75% | 50 to 75%
24 | CC(C)(C)NC[C@H](O)c1ccccc1F [Compound 78, (R)-2-(tert-butylamino)-1-(o-fluorophenyl)-1-ethanol] | > 75% | 25 to 50%
25 | CO[C@H]1CC[C@H](CCNC[C@H](O)c2cccc(F)c2)CC1 [Compound 224, (R)-1-(m-fluorophenyl)-2-{2-[(1r,4R)-4-methoxycyclohexyl]ethyl-amino}-1-ethanol] | 25 to 50% | < 25%
26 | CCCC(C)NCC(O)c1cc(Cl)c(N)c(C(F)(F)F)c1 (stereo not shown) [Compound 33, 1-[4-amino-3-chloro-5-(trifluoromethyl)phenyl]-2-(1-methylbutylamino)-1-ethanol] | 50 to 75% | > 75%
27 | CC(C)(C[C@H]1CC[C@@H](NS(=O)(=O)C(F)(F)F)CC1)NC[C@H](O)c1cncc(F)c1 [Compound 522, (R)-2-{1,1-dimethyl-2-[(1s,4S)-4-(trifluoromesylamino)cychloehxyl]ethylamino}-1-(5-fluoro-3-pyridyl)-1-ethanol] | > 75% | < 25%
28 | CC(C)(C[C@H]1CC[C@H](N)CC1)NC[C@H](O)c1cncc(F)c1 [Compound 359, (R)-2-{1,1-dimethyl-2-[(1r,4R)-4-aminocyclohexyl]ethylamino}-1-(5-fluoro-3-pyridyl)-1-ethanol] | > 75% | < 25%
29 | CN(C)C(=O)N[C@H]1CC[C@H](CC(C)(C)NC[C@H](O)c2cccc(F)c2)CC1 [Compound 430, (R)-2-{1,1-dimethyl-2-[(1r,4R)-4-(3,3-dimethylureido)cyclohexyl]ethylamino}-1-(m-fluorophenyl)-1-ethanol] | > 75% | 50 to 75%
30 | COC(=O)[C@H]1CC[C@H](C(C)(C)NC[C@H](O)c2cncc(F)c2)CC1 [Compound 370, (1R,4r)-8-[(R)-2-(5-fluoro-3-pyridyl)-2-hydroxyethylamino]-7-methoxy-p-menthan-7-one] | > 75% | < 25%
31 | CCC[C@@H]1CC[C@H]([C@H](O)c2cccc(O)c2)N1 [Compound 57, m-{(R)-[(2R,5R)-5-propyl-2-pyrrolidinyl]hydroxymeth-yl}phenol] | > 75% | 50 to 75%
32 | COC(=O)[C@H]1CC[C@@H](C(C)(C)NC[C@H](O)c2cncc(F)c2)CC1 [Compound 321, (1S,4s)-8-[(R)-2-(5-fluoro-3-pyridyl)-2-hydroxyethylamino]-7-methoxy-p-menthan-7-one] | 50 to 75% | < 25%
33 | CC(=O)N[C@H]1CC[C@@H](CC(C)(C)NC[C@H](O)c2cccc(C(F)(F)F)n2)CC1 [Compound 462, N-[(1R,4s)-4-(2-{(S)-2-hydroxy-2-[6-(trifluoromethyl)-2-pyridyl]ethylamino}-2-methylpropyl)cyclohexyl]acetamide] | 25 to 50% | < 25%
34 | CCC[C@H]1CCC[C@@H]([C@H](O)c2cccc(Cl)c2)N1 [Compound 123, (R)-[(2S,6S)-6-propyl-2-piperidyl](m-chlorophenyl)methanol] | 25 to 50% | < 25%
35 | CC12CC(C1)[C@@H]([C@H](O)c1cccc(Cl)c1)N2 [Compound 209, (R)-{(S)-1-methyl-2-azabicyclo[2.1.1]hex-3-yl}(m-chlorophenyl)methanol] | 25 to 50% | < 25%
